Source: US20260242419A1, “A CYCLIC PEPTIDE FOR TRAPPING INTERLEUKIN-1 BETA” (Merck Sharp & Dohme LLC, priority 2023, published 2026)
pIC50: −log10 of the molar value. Non-standard residues stand in square brackets, D forms with d. Residues, ends and D or L forms follow the SMILES beside them. Phe(4-(5-CO2H-2-pyrimidyl)) = N[C@@H](Cc1ccc(-c2ncc(C(=O)O)cn2)cc1)C(=O)O; dPro(4R-(4-pyridylmethyl)) = O=C(O)[C@H]1C[C@@H](Cc2ccncc2)CN1; Trp(βS-Me,4-F) = C[C@@H](c1c[nH]c2cccc(F)c12)[C@H](N)C(=O)O; Bip(4'-COOH) = N[C@@H](Cc1ccc(-c2ccc(C(=O)O)cc2)cc1)C(=O)O; Ala(1-bicyclo(1.1.1)pentyl) = N[C@@H](CC12CC(C1)C2)C(=O)O; Ala(pyrimidin-5-yl) = N[C@@H](Cc1cncnc1)C(=O)O; Phe(4-COOH) = N[C@@H](Cc1ccc(C(=O)O)cc1)C(=O)O; Pro(cis-4-F) = O=C(O)[C@@H]1C[C@H](F)CN1; Ala(4-THP) = N[C@@H](CC1CCOCC1)C(=O)O; cisHyp = O=C(O)[C@@H]1C[C@H](O)CN1; 4Pal = N[C@@H](Cc1ccncc1)C(=O)O; αMeD = C[C@](N)(CC(=O)O)C(=O)O; d(αMeS) = C[C@@](N)(CO)C(=O)O; Dab = NCC[C@H](N)C(=O)O; Aib = CC(C)(N)C(=O)O

target: T1, IL-1β (Homo sapiens, UniProt P01584); test: IL-6 assay in MRC5 cells: inhibition of IL-1β induced IL-6 secretion (AlphaLISA); type: cell-based; conditions: inhibition of IL-1β induced IL-6 secretion in MRC5 cells; read-out: MRC5 IC50
T1 construct: purchased BioLegend 579404
T1 sequence (P01584 117-269): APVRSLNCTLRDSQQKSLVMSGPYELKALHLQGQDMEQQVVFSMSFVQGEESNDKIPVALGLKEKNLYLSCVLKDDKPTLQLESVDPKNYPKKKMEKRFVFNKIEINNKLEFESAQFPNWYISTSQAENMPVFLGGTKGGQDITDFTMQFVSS
Outline: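 Compound was pre-incubated 1 h at ambient temperature with recombinant human IL-1β at 2λ EC80 before adding human lung fibroblast MRC5 cells (3000/well) in EMEM with 0.025% BSA. After overnight culture at 37 °C, 5% CO2, secreted IL-6 in conditioned medium was measured by AlphaLISA; IC50 from 4-parameter logistic fits.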

In order of rising pIC50:
1. C[C@@H](c1c[nH]c2cccc(F)c12)[C@@H]1NC(=O)[C@@H]2C[C@H](O)CN2C(=O)CNC(=O)[C@H](Cc2ccc(C(=O)O)cc2)NC(=O)[C@H](CC23CC(C2)C3)NC(=O)[C@H](Cc2ccc(-c3ccc(C(=O)O)cc3)cc2)NC(=O)[C@H]2C[C@@H](Cc3ccncc3)CN2C(=O)CNC(=O)[C@H](CCN)NC(=O)[C@H](CCC(N)=O)NC(=O)[C@H](CC2CCOCC2)NC(=O)[C@](C)(CC(=O)O)NC(=O)[C@H](Cc2c[nH]c3ccccc23)NC(=O)[C@H](CO)NC(=O)C(C)(C)NC1=O [Example 191] (cyclo([Bip(4'-COOH)][Ala(1-bicyclo(1.1.1)pentyl)][Phe(4-COOH)]G[cisHyp][Trp(βS-Me,4-F)][Aib]SW[αMeD][Ala(4-THP)]Q[Dab]G[dPro(4R-(4-pyridylmethyl))]))  10.68
2. C[C@@H](c1c[nH]c2cccc(F)c12)[C@@H]1NC(=O)[C@@H]2C[C@H](O)CN2C(=O)CNC(=O)[C@H](Cc2ccc(C(=O)O)cc2)NC(=O)[C@H](CC23CC(C2)C3)NC(=O)[C@H](Cc2ccc(-c3ccc(C(=O)O)cc3)cc2)NC(=O)[C@H]2C[C@@H](Cc3ccncc3)CN2C(=O)CNC(=O)[C@H](CCN)NC(=O)[C@H](CCC(N)=O)NC(=O)[C@H](CC2CCOCC2)NC(=O)[C@@](C)(CO)NC(=O)[C@H](Cc2c[nH]c3ccccc23)NC(=O)[C@H](CO)NC(=O)C(C)(C)NC1=O [Example 192] (cyclo([Bip(4'-COOH)][Ala(1-bicyclo(1.1.1)pentyl)][Phe(4-COOH)]G[cisHyp][Trp(βS-Me,4-F)][Aib]SW[d(αMeS)][Ala(4-THP)]Q[Dab]G[dPro(4R-(4-pyridylmethyl))]))  10.68
3. C[C@@H](c1c[nH]c2cccc(F)c12)[C@@H]1NC(=O)[C@@H]2C[C@H](F)CN2C(=O)CNC(=O)[C@H](Cc2ccc(C(=O)O)cc2)NC(=O)[C@H](CC23CC(C2)C3)NC(=O)[C@H](Cc2ccc(-c3ncc(C(=O)O)cn3)cc2)NC(=O)[C@H]2C[C@@H](Cc3ccncc3)CN2C(=O)CNC(=O)[C@H](CCN)NC(=O)[C@H](CCC(N)=O)NC(=O)[C@H](Cc2cncnc2)NC(=O)[C@](C)(CC(=O)O)NC(=O)[C@H](Cc2c[nH]c3ccccc23)NC(=O)[C@H](CO)NC(=O)C(C)(C)NC1=O [Example 188] (cyclo([Phe(4-(5-CO2H-2-pyrimidyl))][Ala(1-bicyclo(1.1.1)pentyl)][Phe(4-COOH)]G[Pro(cis-4-F)][Trp(βS-Me,4-F)][Aib]SW[αMeD][Ala(pyrimidin-5-yl)]Q[Dab]G[dPro(4R-(4-pyridylmethyl))]))  10.70
4. C[C@@H](c1c[nH]c2cccc(F)c12)[C@@H]1NC(=O)[C@@H]2C[C@H](O)CN2C(=O)CNC(=O)[C@H](Cc2ccc(C(=O)O)cc2)NC(=O)[C@H](CC23CC(C2)C3)NC(=O)[C@H](Cc2ccc(-c3ccc(C(=O)O)cc3)cc2)NC(=O)[C@H]2C[C@@H](Cc3ccncc3)CN2C(=O)CNC(=O)[C@H](CCN)NC(=O)[C@H](CCC(N)=O)NC(=O)[C@H](Cc2cncnc2)NC(=O)[C@@](C)(CO)NC(=O)[C@H](Cc2c[nH]c3ccccc23)NC(=O)[C@H](CO)NC(=O)C(C)(C)NC1=O [Example 190] (cyclo([Bip(4'-COOH)][Ala(1-bicyclo(1.1.1)pentyl)][Phe(4-COOH)]G[cisHyp][Trp(βS-Me,4-F)][Aib]SW[d(αMeS)][Ala(pyrimidin-5-yl)]Q[Dab]G[dPro(4R-(4-pyridylmethyl))]))  10.72
5. C[C@@H](c1c[nH]c2cccc(F)c12)[C@@H]1NC(=O)[C@@H]2C[C@H](F)CN2C(=O)CNC(=O)[C@H](Cc2ccc(C(=O)O)cc2)NC(=O)[C@H](Cc2ccncc2)NC(=O)[C@H](Cc2ccc(-c3ccc(C(=O)O)cc3)cc2)NC(=O)[C@H]2C[C@@H](Cc3ccncc3)CN2C(=O)CNC(=O)[C@H](CO)NC(=O)[C@H](CCC(N)=O)NC(=O)[C@H](CC2CCOCC2)NC(=O)[C@](C)(CC(=O)O)NC(=O)[C@H](Cc2c[nH]c3ccccc23)NC(=O)[C@H](CO)NC(=O)C(C)(C)NC1=O [Example 189] (cyclo([Bip(4'-COOH)][4Pal][Phe(4-COOH)]G[Pro(cis-4-F)][Trp(βS-Me,4-F)][Aib]SW[αMeD][Ala(4-THP)]QSG[dPro(4R-(4-pyridylmethyl))]))  10.80
6. C[C@@H](c1c[nH]c2cccc(F)c12)[C@@H]1NC(=O)[C@@H]2C[C@H](F)CN2C(=O)CNC(=O)[C@H](Cc2ccc(C(=O)O)cc2)NC(=O)[C@H](Cc2ccncc2)NC(=O)[C@H](Cc2ccc(-c3ncc(C(=O)O)cn3)cc2)NC(=O)[C@H]2C[C@@H](Cc3ccncc3)CN2C(=O)CNC(=O)[C@H](CCN)NC(=O)[C@H](CCC(N)=O)NC(=O)[C@H](Cc2cncnc2)NC(=O)C(C)(C)NC(=O)[C@H](Cc2c[nH]c3ccccc23)NC(=O)[C@H](CO)NC(=O)C(C)(C)NC1=O [Example 186] (cyclo([Phe(4-(5-CO2H-2-pyrimidyl))][4Pal][Phe(4-COOH)]G[Pro(cis-4-F)][Trp(βS-Me,4-F)][Aib]SW[Aib][Ala(pyrimidin-5-yl)]Q[Dab]G[dPro(4R-(4-pyridylmethyl))]))  10.82
7. C[C@@H](c1c[nH]c2cccc(F)c12)[C@@H]1NC(=O)[C@@H]2C[C@H](F)CN2C(=O)CNC(=O)[C@H](Cc2ccc(C(=O)O)cc2)NC(=O)[C@H](Cc2ccncc2)NC(=O)[C@H](Cc2ccc(-c3ncc(C(=O)O)cn3)cc2)NC(=O)[C@H]2C[C@@H](Cc3ccncc3)CN2C(=O)CNC(=O)[C@H](CCN)NC(=O)[C@H](CCC(N)=O)NC(=O)[C@H](Cc2cncnc2)NC(=O)[C@](C)(CC(=O)O)NC(=O)[C@H](Cc2c[nH]c3ccccc23)NC(=O)[C@H](CO)NC(=O)C(C)(C)NC1=O [Example 187] (cyclo([Phe(4-(5-CO2H-2-pyrimidyl))][4Pal][Phe(4-COOH)]G[Pro(cis-4-F)][Trp(βS-Me,4-F)][Aib]SW[αMeD][Ala(pyrimidin-5-yl)]Q[Dab]G[dPro(4R-(4-pyridylmethyl))]))  10.82
8. C[C@@H](c1c[nH]c2cccc(F)c12)[C@@H]1NC(=O)[C@@H]2C[C@H](O)CN2C(=O)CNC(=O)[C@H](Cc2ccc(C(=O)O)cc2)NC(=O)[C@H](Cc2ccncc2)NC(=O)[C@H](Cc2ccc(-c3ccc(C(=O)O)cc3)cc2)NC(=O)[C@H]2C[C@@H](Cc3ccncc3)CN2C(=O)CNC(=O)[C@H](CCN)NC(=O)[C@H](CCC(N)=O)NC(=O)[C@H](Cc2cncnc2)NC(=O)C(C)(C)NC(=O)[C@H](Cc2c[nH]c3ccccc23)NC(=O)[C@H](CO)NC(=O)C(C)(C)NC1=O [Example 194] (cyclo([Bip(4'-COOH)][4Pal][Phe(4-COOH)]G[cisHyp][Trp(βS-Me,4-F)][Aib]SW[Aib][Ala(pyrimidin-5-yl)]Q[Dab]G[dPro(4R-(4-pyridylmethyl))]))  10.85
9. C[C@@H](c1c[nH]c2cccc(F)c12)[C@@H]1NC(=O)[C@@H]2C[C@H](F)CN2C(=O)CNC(=O)[C@H](Cc2ccc(C(=O)O)cc2)NC(=O)[C@H](CC23CC(C2)C3)NC(=O)[C@H](Cc2ccc(-c3ccc(C(=O)O)cc3)cc2)NC(=O)[C@H]2C[C@@H](Cc3ccncc3)CN2C(=O)CNC(=O)[C@H](CCN)NC(=O)[C@H](CCC(N)=O)NC(=O)[C@H](CC2CCOCC2)NC(=O)[C@](C)(CC(=O)O)NC(=O)[C@H](Cc2c[nH]c3ccccc23)NC(=O)[C@H](CO)NC(=O)C(C)(C)NC1=O [Example 193] (cyclo([Bip(4'-COOH)][Ala(1-bicyclo(1.1.1)pentyl)][Phe(4-COOH)]G[Pro(cis-4-F)][Trp(βS-Me,4-F)][Aib]SW[αMeD][Ala(4-THP)]Q[Dab]G[dPro(4R-(4-pyridylmethyl))]))  10.96
